In US10508090B2, “Sulfonamides as GPR40- and GPR120-agonists” (DOMPÉ FARMACEUTICI S.P.A., priority 2016, dated 2019):

Legend:
STC-1 cells = assay: In vitro GLP-1 secretion in STC-1 cells (ELISA); format: cell-based, murine; conditions: for fold induction at 30 µM: Mus musculus, STC-1, 0.5 h, compound at 30 μM for 30 minutes, STC-1 cells, read-out: GLP-1 RELEASE STC-1, fold of increase over DMSO
Procedure: (§1) GPR120/40 Activation: In Vitro GLP-1 Secretion
(§2) 2×10^5 STC-1 cells were seeded in a 12-plate and 24 hours later were treated with selected compounds. 1×10^6 NCI-H716 cells were differentiated in matrigel-coated 12-plate and treated 48 h hours later.
(§3) The day of the experiment, wells were washed once with 1 ml of PBS and then cells were stimulated with 0.5 ml of DMEM (w/o serum, w/o phenol-red) containing 30 μM of selected compounds in STC1 and 100 μM in differentiated NCIH716 for 30 minutes. DMSO has been used as negative control, α-linolenic acid (ALA) (endogenous agonist) as positive control. After stimulations, supernatants were collected, centrifuged at 4000 rpm for 4′ at 4° C., and used for the GLP1 detection by ELISA.

human GPR40 = molecular target: T1, human GPR40 (Homo sapiens, UniProt O14842); assay: In vitro Ca2+ mobilization, CHO-k1 cells stably expressing human GPR40; format: cell-based; conditions: for AC50: read-out: Ca2+ hGPR40 AC50
T1 construct: expressed in transfected cells; host or cells: CHO-k1
Procedure: (§4) GPR120/40 Activation: In Vitro Ca^2+ Mobilization
(§5) The activation of GPR120/40 by all compounds was determined by measuring changes in intracellular calcium levels using a Ca^2+ sensitive fluorescent dye.
(§6) The experiments were performed using CHO-k1 cells stably expressing the human GPR120 or GPR40. Cells were seeded 10000 cells/well in 384-plates in complete medium and grown overnight at 37° C., 5% CO2. 24 h after seeding, cell culture media was removed and cells were loaded with the fluorescent Ca^2+ indicator (Fluo-8 NW dye in Tyrode's buffer). Dye-loaded cell plates were incubated for 1 h at room temperature under a yellow light sodium lamp.
(§7) Cell were treated with test compounds and controls at 10, 30 and 60 μM. The kinetic response was monitored over a period of 7 minutes (using FLIPRTETRA system). A second injection of 3× concentrated reference agonist at ˜EC50 were then administered to cells and the signal of the emitted fluorescence was measured over a period of additional 3 minutes. The agonist effect is expressed as a percentage of activation, with 100% activation being a result in which the Response Values of the test wells reach a level identical to the one of the Stimulator Controls (alpha linolenic acid reference agonist EC100). 0% activation is a result in which the Response Values of the test wells reach a level identical to the one of the Neutral Controls (assay buffer) in the AGO_KRV (Agonist Kinetic Response Value) response value.

NCI-H716 cells = assay: In vitro GLP-1 secretion in differentiated NCI-H716 cells (ELISA); format: cell-based, human; conditions: for fold induction at 100 µM: Homo sapiens, NCI-H716, 0.5 h, compound at 100 μM for 30 minutes, differentiated NCI-H716 cells, read-out: GLP-1 RELEASE NCI, fold of increase over DMSO
Procedure: as §1, §2, §3

human GPR120 = molecular target: T2, human GPR120 (Homo sapiens, UniProt Q5NUL3); assay: In vitro Ca2+ mobilization, CHO-k1 cells stably expressing human GPR120; format: cell-based; conditions: for AC50: intracellular calcium, CHO-k1 cells expressing human GPR120, read-out: Ca2+ hGPR120 AC50
T2 construct: expressed in transfected cells; host or cells: CHO-k1
T2 sequence (Q5NUL3 1-361): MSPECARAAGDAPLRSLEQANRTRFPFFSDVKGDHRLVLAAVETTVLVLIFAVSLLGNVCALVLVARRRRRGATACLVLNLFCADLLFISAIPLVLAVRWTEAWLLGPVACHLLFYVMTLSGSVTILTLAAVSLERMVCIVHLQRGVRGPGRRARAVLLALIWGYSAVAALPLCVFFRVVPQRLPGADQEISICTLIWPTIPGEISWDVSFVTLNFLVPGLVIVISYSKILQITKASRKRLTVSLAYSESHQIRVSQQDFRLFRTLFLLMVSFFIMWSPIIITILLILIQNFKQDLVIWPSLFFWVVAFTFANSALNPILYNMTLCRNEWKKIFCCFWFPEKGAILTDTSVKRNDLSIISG
Procedure: as §4, §5, §6, §7

[1] = intracellular calcium, CHO-k1 cells expressing human GPR40

T1 sequence (O14842 whole entry): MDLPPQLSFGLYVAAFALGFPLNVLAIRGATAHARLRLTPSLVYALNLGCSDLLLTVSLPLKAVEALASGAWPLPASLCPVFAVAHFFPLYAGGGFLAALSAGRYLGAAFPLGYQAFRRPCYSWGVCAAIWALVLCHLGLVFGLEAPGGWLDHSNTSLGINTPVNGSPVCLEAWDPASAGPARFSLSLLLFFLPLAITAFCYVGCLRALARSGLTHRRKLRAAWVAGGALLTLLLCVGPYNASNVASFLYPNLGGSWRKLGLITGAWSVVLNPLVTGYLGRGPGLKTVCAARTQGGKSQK

| SMILES | fold induction at 30 µM (STC-1 cells) | AC50 (human GPR40; [1]) | fold induction at 100 µM (NCI-H716 cells) | AC50 (human GPR120) | GLP-1 secretion in STC1 (murine) cells, in words (STC-1 cells) | agonistic activity on GPR40 (AC50 in the calcium mobilization assay), in words (human GPR40) | Ca2+ hGPR40 AC50 (human GPR40; [1]) | GLP-1 secretion in NCI-H716 (human) cells, in words (NCI-H716 cells) | agonistic activity on GPR120 (AC50 in the calcium mobilization assay), in words (human GPR120) |
| --- | --- | --- | --- | --- | --- | --- | --- | --- | --- |
| Cc1nsc(NS(=O)(=O)c2cccc(CCCCCCC(=O)O)c2)n1 [Example 17, 7-(3-(N-(3-methyl-1,2,4-thiadiazol-5-yl)sulfamoyl)phenyl)heptanoic acid] | 1.9 ± 0.51 | 13.9 µM | 2.19 ± 1.22 | 22.3 µM |  |  |  |  |  |
| Cc1nnc(NS(=O)(=O)c2cccc(CCCCCCC(=O)O)c2)s1 [Example 18, 7-(3-(N-(5-methyl-1,3,4-thiadiazol-2-yl)sulfamoyl)phenyl)heptanoic acid] | 1.98 ± 0.37 | 22.4 µM | 1.25 ± 0.8 | 27.8 µM |  |  |  |  |  |
| Cc1noc(C)c1NS(=O)(=O)c1cccc(CCCCCCC(=O)O)c1 [Example 19, 7-(3-(N-(3,5-dimethylisoxazol-4-yl)sulfamoyl)phenyl)heptanoic acid] | 2.57 ± 0.56 | 12.1 µM | 2.24 ± 0.39 | 17.6 µM |  |  |  |  |  |
| Cc1nnc(NS(=O)(=O)c2cccc(CCCCCCC(=O)O)c2)[nH]1 [Example 20, 7-(3-(N-(5-methyl-4H-1,2,4-triazol-3-yl)sulfamoyl)phenyl)heptanoic acid] | 3.36 ± 0.37 | 8.2 µM | 3.31 ± 0.28 | 6.5 µM |  |  |  |  |  |
| Cc1nnc(C)n1NS(=O)(=O)c1cccc(CCCCCCC(=O)O)c1 [Example 21, 7-(3-(N-(3,5-dimethyl-4H-1,2,4-triazol-4-yl)sulfamoyl)phenyl)heptanoic acid] | 2.23 ± 0.98 | 7.9 µM | 2.57 ± 0.91 | 17 µM |  |  |  |  |  |
| O=C(O)CCCCCCc1cccc(S(=O)(=O)Nc2cc(-c3ccccc3)ns2)c1 [Example 22, 7-(3-(N-(3-phenylisothiazol-5-yl)sulfamoyl)phenyl)heptanoic acid] | 3.13 ± 1.26 | 11.7 µM | 3.71 ± 0.67 | 10.2 µM |  |  |  |  |  |
| O=C(O)CCCCCCc1cccc(S(=O)(=O)Nc2cccc3c(O)cccc23)c1 [Example 23, 7-{3-[(5-hydroxynaphthalen-1-yl)sulfamoyl]phenyl}heptanoic acid] | 4.34 ± 0.51 | 8.2 µM | 4.69 ± 0.41 | 7.1 µM |  |  |  |  |  |
| Cc1cc(F)cc(C)c1C(=O)NS(=O)(=O)c1cccc(CCCCCCC(=O)O)c1 [Example 24, 7-{3-[(4-fluoro-2,6-dimethylbenzoyl)sulfamoyl]phenyl}heptanoic acid] | 4.19 ± 0.72 | 13.3 µM | 5.01 ± 0.99 | 5.9 µM |  |  |  |  |  |
| Cc1cc(F)cc(C)c1NS(=O)(=O)c1ccc(CCCCCCC(=O)O)cc1 [Example 25, 7-{4-[(4-fluoro-2,6-dimethylphenyl)sulfamoyl]phenyl}heptanoic acid] | 4.1 ± 0.78 | 6.1 µM | 3.2 ± 0.31 | 4.3 µM |  |  |  |  |  |
| CCn1ncc(NS(=O)(=O)c2cccc(CCCCCCC(=O)O)c2)n1 [Example 26, 7-(3-(N-(2-ethyl-2H-1,2,3-triazol-4-yl)sulfamoyl)phenyl)heptanoic acid] | 1.82 ± 0.41 | 20.1 µM | 2.81 ± 0.72 | 18.9 µM |  |  |  |  |  |
| Cn1nnc(NS(=O)(=O)c2cccc(CCCCCCC(=O)O)c2)n1 [Example 27, 7-(3-(N-(2-methyl-2H-tetrazol-5-yl)sulfamoyl)phenyl)heptanoic acid] | 1.99 ± 0.51 | 10.7 µM | 2.89 ± 0.55 | 10.1 µM |  |  |  |  |  |
| CC1COC(NS(=O)(=O)c2cccc(CCCCCCC(=O)O)c2)=N1 (centres unmarked) [Example 28, 7-(3-(N-(4-methyl-4,5-dihydrooxazol-2-yl)sulfamoyl)phenyl)heptanoic acid] | 3.64 ± 0.43 | 7.1 µM | 3.88 ± 1.96 | 16.1 µM |  |  |  |  |  |
| O=C(O)CCCCCCc1cccc(S(=O)(=O)NC2=NC3CCCCC3N2)c1 (centres unmarked) [Example 29, 7-(3-(N-(3a,4,5,6,7,7a-hexahydro-1H-benzo[d]imidazol-2-yl)sulfamoyl)phenyl)heptanoic Acid] | 1.12 ± 0.4 | 8.4 µM | 2.89 ± 0.81 | 12.4 µM |  |  |  |  |  |
| O=C(O)CCCCCCc1cccc(S(=O)(=O)Nc2csnc2-c2ccccc2)c1 [Example 30, 7-(3-(N-(3-phenylisothiazol-4-yl)sulfamoyl)phenyl)heptanoic acid] | 2.94 ± 1.12 | 31.2 µM | 2.13 ± 1.83 | 37.1 µM |  |  |  |  |  |
| Cc1cc(O)cc(C)c1NS(=O)(=O)c1cccc(CCCCCCC(=O)O)c1 [Example 31, 7-(3-(N-(4-hydroxy-2,6-dimethylphenyl)sulfamoyl)phenyl)heptanoic acid] | 3.55 ± 0.87 | 3.2 µM | 3.7 ± 0.56 | 9.3 µM |  |  |  |  |  |
| Cc1cc(-c2ccccc2)cc(C)c1NS(=O)(=O)c1cccc(CCCCCCC(=O)O)c1 [Example 32, 7-(3-(N-(3,5-dimethyl-[1,1′-biphenyl]-4-yl)sulfamoyl)phenyl)heptanoic acid] | 3.67 ± 0.9 | 23.7 µM | 4.51 ± 0.59 | 11.1 µM |  |  |  |  |  |
| Cc1cc(Oc2ccccc2)cc(C)c1NS(=O)(=O)c1cccc(CCCCCCC(=O)O)c1 [Example 33, 7-(3-(N-(2,6-dimethyl-4-phenoxyphenyl)sulfamoyl)phenyl)heptanoic acid] | 3 ± 1.82 |  | 1.58 ± 1.27 | 18 µM | efficacious | low microMolar range | Inactive | efficacious | low microMolar range |
| Cc1cc(OCc2ccccc2)cc(C)c1NS(=O)(=O)c1cccc(CCCCCCC(=O)O)c1 [Example 34, 7-(3-(N-(4-(benzyloxy)-2,6-dimethylphenyl)sulfamoyl)phenyl)heptanoic acid] | 5.5 ± 0.73 | 12.4 µM | 4.58 ± 0.26 | 7 µM |  |  |  |  |  |
| Cc1cc(OCCCS(C)(=O)=O)cc(C)c1NS(=O)(=O)c1cccc(CCCCCCC(=O)O)c1 [Example 35, 7-(3-(N-(2,6-dimethyl-4-(3(methylsulfonyl)propoxy)phenyl)sulfamoyl)phenyl)heptanoic acid] | 4.3 ± 0.61 | 2.3 µM | 4.2 ± 0.25 | 6.1 µM |  |  |  |  |  |
